Measured values from patent US11826466B2, “Bendamustine solution formulations” (Navinta, LLC, priority 2016, dated 2023).
Where a name gives a salt, the structure may show the parent alone.

Experiments:
[1] = Solubility of Bendamustine Hydrochloride in DMA-Water Mixture; type: physicochemical; conditions: organic solvent or mixture, thermodynamic from solid, 5° C.
Experimental: To 10 ml of DMA-water mixture, excess (˜2-3 g) of Bendamustine Hydrochloride hydrate was added and the mixture was stirred for 24 hr while keeping in a constant temperature bath. After 24 hr, the mixture was centrifuged to remove the undissolved solid and the supernatant was filtered through a 0.2 micron filter. The clear filtrate was assayed.

[2] = Solubility of Bendamustine Hydrochloride in DMA
[3] = room temperature; reported in U.S. Pat. No. 8,344,006; cited from earlier work

Row | Compound | solubility at 24 h ([1]; DMA:Water 60:40) | solubility at 24 h ([1]; DMA:Water 80:20) | solubility at 24 h ([1]; DMA:Water 90:10) | solubility at 24 h ([1]; DMA:Water 95:5) | solubility at 24 h ([1]; DMA:Water 97:3) | solubility at 24 h ([1]; DMA) | concentration of solutions in DMA made by adding water to DMA ([2]; DMA with added water) | solubility ([2]; DMA, 2 °C, organic solvent or mixture) | solubility in DMA [3]
1 | Cn1c(CCCC(=O)O)nc2cc(N(CCCl)CCCl)ccc21 [Bendamustine Hydrochloride hydrate] | 67 mg/mL | 169 mg/mL | 201 mg/mL | 114 mg/mL | 116 mg/mL | 72 mg/mL | up to 200 mg/mL | ~65 mg/mL | –
2 | Cn1c(CCCC(=O)O)nc2cc(N(CCCl)CCCl)ccc21 [Bendamustine Hydrochloride] | – | – | – | – | – | – | – | – | about 56 mg/mL
